ChEMBL document CHEMBL2396621, “Design, synthesis and biological evaluation of 2-mercapto-3-phenethylquinazoline bearing anilide fragments as potential antitumor agents: molecular docking study” (2013)

How the values were obtained:
Format in all cases: functional
NCI-H226 = test: Cytotoxicity against human NCI-H226 cells assessed as growth inhibition at 10 uM after 48 hrs by coulter counter analysis; details: NCI-H226, 48 h, read-out: GI
PC-3 = test: Cytotoxicity against human PC3 cells assessed as growth inhibition at 10 uM after 48 hrs by coulter counter analysis; details: PC-3, 48 h, read-out: GI
HT-29 = test: Cytotoxicity against human HT-29 cells assessed as growth inhibition at 10 uM after 48 hrs by coulter counter analysis; details: HT-29, 48 h, read-out: GI
SF-295 = test: Cytotoxicity against human SF295 cells assessed as growth inhibition at 10 uM after 48 hrs by coulter counter analysis; details: SF-295, 48 h, read-out: GI
OVCAR-8 = test: Cytotoxicity against human OVCAR8 cells assessed as growth inhibition at 10 uM after 48 hrs by coulter counter analysis; details: OVCAR-8, 48 h, read-out: GI
RXF 393 = test: Cytotoxicity against human RXF393 cells assessed as growth inhibition at 10 uM after 48 hrs by coulter counter analysis; details: RXF 393, 48 h, read-out: GI
SF-268 = test: Cytotoxicity against human SF268 cells assessed as growth inhibition at 10 uM after 48 hrs by coulter counter analysis; details: SF-268, 48 h, read-out: GI
A498 = test: Cytotoxicity against human A498 cells assessed as growth inhibition at 10 uM after 48 hrs by coulter counter analysis; details: A498, 48 h, read-out: GI
IGROV-1 = test: Cytotoxicity against human IGROV1 cells assessed as growth inhibition at 10 uM after 48 hrs by coulter counter analysis; details: IGROV-1, 48 h, read-out: GI
SK-MEL-28 = test: Cytotoxicity against human SK-MEL-28 cells assessed as growth inhibition at 10 uM after 48 hrs by coulter counter analysis; details: SK-MEL-28, 48 h, read-out: GI
NCI-H322M = test: Cytotoxicity against human NCI-H322M cells assessed as growth inhibition at 10 uM after 48 hrs by coulter counter analysis; details: read-out: GI
SNB-19 = test: Cytotoxicity against human SNB19 cells assessed as growth inhibition at 10 uM after 48 hrs by coulter counter analysis; details: SNB-19, 48 h, read-out: GI
[1] = Cytotoxicity against human EKVX cells assessed as growth inhibition at 10 uM after 48 hrs by coulter counter analysis; details: read-out: GI
HCT-15 = test: Cytotoxicity against human HCT15 cells assessed as growth inhibition at 10 uM after 48 hrs by coulter counter analysis; details: HCT-15, 48 h, read-out: GI
UACC-62 = test: Cytotoxicity against human UACC62 cells assessed as growth inhibition at 10 uM after 48 hrs by coulter counter analysis; details: UACC-62, 48 h, read-out: GI
786-0 = test: Cytotoxicity against human 786-0 cells assessed as growth inhibition at 10 uM after 48 hrs by coulter counter analysis; details: 786-0, 48 h, read-out: GI
SW-620 = test: Cytotoxicity against human SW620 cells assessed as growth inhibition at 10 uM after 48 hrs by coulter counter analysis; details: SW-620, 48 h, read-out: GI
Malme-3M = test: Cytotoxicity against human MALME-3M cells assessed as growth inhibition at 10 uM after 48 hrs by coulter counter analysis; details: read-out: GI
A549 = test: Cytotoxicity against human A549 cells assessed as growth inhibition at 10 uM after 48 hrs by coulter counter analysis; details: A549, 48 h, read-out: GI
TK-10 = test: Cytotoxicity against human TK10 cells assessed as growth inhibition at 10 uM after 48 hrs by coulter counter analysis; details: TK-10, 48 h, read-out: GI
KM12 = test: Cytotoxicity against human KM12 cells assessed as growth inhibition at 10 uM after 48 hrs by coulter counter analysis; details: KM12, 48 h, read-out: GI
CAKI-1 = test: Cytotoxicity against human Caki1 cells assessed as growth inhibition at 10 uM after 48 hrs by coulter counter analysis; details: CAKI-1, 48 h, read-out: GI
T47D = test: Cytotoxicity against human T47D cells assessed as growth inhibition at 10 uM after 48 hrs by coulter counter analysis; details: read-out: GI
SK-OV-3 = test: Cytotoxicity against human SKOV3 cells assessed as growth inhibition at 10 uM after 48 hrs by coulter counter analysis; details: SK-OV-3, 48 h, read-out: GI
LOX IMVI = test: Cytotoxicity against human LOXIMVI cells assessed as growth inhibition at 10 uM after 48 hrs by coulter counter analysis; details: read-out: GI
MDA-MB-435 = test: Cytotoxicity against human MDA-MB-435 cells assessed as growth inhibition at 10 uM after 48 hrs by coulter counter analysis; details: MDA-MB-435, 48 h, read-out: GI
SNB-75 = test: Cytotoxicity against human SNB75 cells assessed as growth inhibition at 10 uM after 48 hrs by coulter counter analysis; details: SNB-75, 48 h, read-out: GI
M14 = test: Cytotoxicity against human M14 cells assessed as growth inhibition at 10 uM after 48 hrs by coulter counter analysis; details: M14, 48 h, read-out: GI
UACC-257 = test: Cytotoxicity against human UACC257 cells assessed as growth inhibition at 10 uM after 48 hrs by coulter counter analysis; details: UACC-257, 48 h, read-out: GI
COLO 205 = test: Cytotoxicity against human COLO205 cells assessed as growth inhibition at 10 uM after 48 hrs by coulter counter analysis; details: COLO 205, 48 h, read-out: GI
OVCAR-4 = test: Cytotoxicity against human OVCAR4 cells assessed as growth inhibition at 10 uM after 48 hrs by coulter counter analysis; details: OVCAR-4, 48 h, read-out: GI
OVCAR-5 = test: Cytotoxicity against human OVCAR5 cells assessed as growth inhibition at 10 uM after 48 hrs by coulter counter analysis; details: OVCAR-5, 48 h, read-out: GI
MDA-MB-468 = test: Cytotoxicity against human MDA-MB-468 cells assessed as growth inhibition at 10 uM after 48 hrs by coulter counter analysis; details: MDA-MB-468, 48 h, read-out: GI
UO-31 = test: Cytotoxicity against human UO31 cells assessed as growth inhibition at 10 uM after 48 hrs by coulter counter analysis; details: UO-31, 48 h, read-out: GI
[2] = Cytotoxicity against human NCI-ADR-RES cells assessed as growth inhibition at 10 uM after 48 hrs by coulter counter analysis; details: read-out: GI
SN12C = test: Cytotoxicity against human SN12C cells assessed as growth inhibition at 10 uM after 48 hrs by coulter counter analysis; details: read-out: GI
MCF7 = test: Cytotoxicity against human MCF7 cells assessed as growth inhibition at 10 uM after 48 hrs by coulter counter analysis; details: MCF7, 48 h, read-out: GI
U-251 = test: Cytotoxicity against human U251 cells assessed as growth inhibition at 10 uM after 48 hrs by coulter counter analysis; details: U-251, 48 h, read-out: GI

SMILES	inhibition of growth at 10 µM (PC-3) [%]	inhibition of growth at 10 µM (HT-29) [%]	inhibition of growth at 10 µM (SF-295) [%]	inhibition of growth at 10 µM (OVCAR-8) [%]	inhibition of growth at 10 µM (RXF 393) [%]	inhibition of growth at 10 µM (SF-268) [%]	inhibition of growth at 10 µM (A498) [%]	inhibition of growth at 10 µM (IGROV-1) [%]	inhibition of growth at 10 µM (SK-MEL-28) [%]	inhibition of growth at 10 µM (NCI-H322M) [%]	inhibition of growth at 10 µM (SNB-19) [%]	inhibition of growth at 10 µM (HCT-15) [%]	inhibition of growth at 10 µM (UACC-62) [%]	inhibition of growth at 10 µM (786-0) [%]	inhibition of growth at 10 µM (SW-620) [%]	inhibition of growth at 10 µM (Malme-3M) [%]	inhibition of growth at 10 µM (A549) [%]	inhibition of growth at 10 µM (TK-10) [%]	inhibition of growth at 10 µM (KM12) [%]	inhibition of growth at 10 µM (T47D) [%]	also measured
O=C(CSc1nc2ccccc2c(=O)n1CCc1ccccc1)Nc1ccccc1C(=O)O	< 10	11	18	61	25	33	26	42	17	19	40	12	21	16	21	18	46	19	10	27	inhibition of growth at 10 µM (NCI-H226): 26%; inhibition of growth at 10 µM [1]: 25%; inhibition of growth at 10 µM (CAKI-1): < 10%; inhibition of growth at 10 µM (SK-OV-3): 53%; inhibition of growth at 10 µM (LOX IMVI): 38%; inhibition of growth at 10 µM (MDA-MB-435): 35%; inhibition of growth at 10 µM (SNB-75): 74%; inhibition of growth at 10 µM (M14): 12%; inhibition of growth at 10 µM (UACC-257): 35%; inhibition of growth at 10 µM (COLO 205): 35%; inhibition of growth at 10 µM (OVCAR-4): 23%; inhibition of growth at 10 µM (OVCAR-5): < 10%; inhibition of growth at 10 µM (MDA-MB-468): 14%; inhibition of growth at 10 µM (UO-31): < 10%; inhibition of growth at 10 µM [2]: 34%; inhibition of growth at 10 µM (SN12C): < 10%; inhibition of growth at 10 µM (MCF7): 21%
O=C(CSc1nc2ccccc2c(=O)n1CCc1ccccc1)Oc1ccccc1	14	< 10	20	23	< 10	16	18	10	< 10	25	< 10	< 10	19	13	< 10	16	12	< 10	< 10	14	inhibition of growth at 10 µM (CAKI-1): < 10%; inhibition of growth at 10 µM (SK-OV-3): 28%; inhibition of growth at 10 µM (LOX IMVI): 16%; inhibition of growth at 10 µM (MDA-MB-435): 19%; inhibition of growth at 10 µM (SNB-75): 28%; inhibition of growth at 10 µM (M14): 13%; inhibition of growth at 10 µM (UACC-257): 11%; inhibition of growth at 10 µM (COLO 205): < 10%; inhibition of growth at 10 µM (OVCAR-4): 59%; inhibition of growth at 10 µM (OVCAR-5): < 10%; inhibition of growth at 10 µM (MDA-MB-468): < 10%; inhibition of growth at 10 µM (UO-31): 16%; inhibition of growth at 10 µM [2]: 22%; inhibition of growth at 10 µM (SN12C): 16%; inhibition of growth at 10 µM (MCF7): 15%
COc1cc(NC(=O)CSc2nc3ccccc3c(=O)n2CCc2ccccc2)cc(OC)c1OC	59	85	49	70	55	87	> 100	92	63	73	73	11	25	> 100	52	59	76	> 100	93	> 100	inhibition of growth at 10 µM (NCI-H226): > 100%; inhibition of growth at 10 µM (U-251): > 100%; inhibition of growth at 10 µM [1]: 35%; inhibition of growth at 10 µM (SK-OV-3): > 100%; inhibition of growth at 10 µM (LOX IMVI): 70%; inhibition of growth at 10 µM (MDA-MB-435): > 100%; inhibition of growth at 10 µM (SNB-75): > 100%; inhibition of growth at 10 µM (M14): 68%; inhibition of growth at 10 µM (UACC-257): 61%; inhibition of growth at 10 µM (COLO 205): 71%; inhibition of growth at 10 µM (OVCAR-4): 47%; inhibition of growth at 10 µM (OVCAR-5): 35%; inhibition of growth at 10 µM (MDA-MB-468): 71%; inhibition of growth at 10 µM (UO-31): > 100%; inhibition of growth at 10 µM [2]: 64%; inhibition of growth at 10 µM (SN12C): 75%; inhibition of growth at 10 µM (MCF7): 49%
